# The source made the active and inactive calls.
# Legend:
# [1] = cervical cancer cell viability loss – HeLa, 24 h, plate reader, powder samples, set 3, cytotoxicity control, dose response (AID 651864); type: functional, cell-based
# [2] = NIH3T3 cell viability loss – ATP luminescence, mouse fibroblasts, counter-screen, dose response (AID 2010); type: functional, cell-based;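 note: cells exposed to compound for about 90 hours before reading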
# [3] = Trypanosoma cruzi growth suppression in host cells – NIH3T3 host cells, beta-gal luminescence, confirmation (AID 2044); type: functional, cell-based;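 note: intracellular parasites grown in NIH/3T3 mouse fibroblasts as host cells; luminescent beta-galactosidase reporter signal from transgenic T. cruzi replicating inside host cells; inhibitors lower the luminescence signal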
# cells [4] = test: cells
# [5] = molecular target: T1, Sentrin-specific protease 8 (Homo sapiens, UniProt Q96LD8); type: functional;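 note: luminescence read-out of SENP8 inhibition, dose-response confirmation following an ultra-high-throughput screen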
# T1 sequence (Q96LD8 whole entry): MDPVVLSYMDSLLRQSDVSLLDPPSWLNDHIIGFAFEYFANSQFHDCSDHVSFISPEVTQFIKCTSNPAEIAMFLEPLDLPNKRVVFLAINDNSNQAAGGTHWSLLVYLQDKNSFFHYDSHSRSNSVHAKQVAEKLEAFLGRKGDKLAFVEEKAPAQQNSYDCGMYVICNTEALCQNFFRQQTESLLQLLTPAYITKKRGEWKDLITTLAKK
# [6] = molecular target: T2, Sentrin-specific protease 7 (Homo sapiens, UniProt Q9BQF6); type: functional;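 note: Luminescence-based dose-response confirmation of ultra-high-throughput screening hits, measuring inhibition of SENP7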
# T2 sequence (Q9BQF6 whole entry): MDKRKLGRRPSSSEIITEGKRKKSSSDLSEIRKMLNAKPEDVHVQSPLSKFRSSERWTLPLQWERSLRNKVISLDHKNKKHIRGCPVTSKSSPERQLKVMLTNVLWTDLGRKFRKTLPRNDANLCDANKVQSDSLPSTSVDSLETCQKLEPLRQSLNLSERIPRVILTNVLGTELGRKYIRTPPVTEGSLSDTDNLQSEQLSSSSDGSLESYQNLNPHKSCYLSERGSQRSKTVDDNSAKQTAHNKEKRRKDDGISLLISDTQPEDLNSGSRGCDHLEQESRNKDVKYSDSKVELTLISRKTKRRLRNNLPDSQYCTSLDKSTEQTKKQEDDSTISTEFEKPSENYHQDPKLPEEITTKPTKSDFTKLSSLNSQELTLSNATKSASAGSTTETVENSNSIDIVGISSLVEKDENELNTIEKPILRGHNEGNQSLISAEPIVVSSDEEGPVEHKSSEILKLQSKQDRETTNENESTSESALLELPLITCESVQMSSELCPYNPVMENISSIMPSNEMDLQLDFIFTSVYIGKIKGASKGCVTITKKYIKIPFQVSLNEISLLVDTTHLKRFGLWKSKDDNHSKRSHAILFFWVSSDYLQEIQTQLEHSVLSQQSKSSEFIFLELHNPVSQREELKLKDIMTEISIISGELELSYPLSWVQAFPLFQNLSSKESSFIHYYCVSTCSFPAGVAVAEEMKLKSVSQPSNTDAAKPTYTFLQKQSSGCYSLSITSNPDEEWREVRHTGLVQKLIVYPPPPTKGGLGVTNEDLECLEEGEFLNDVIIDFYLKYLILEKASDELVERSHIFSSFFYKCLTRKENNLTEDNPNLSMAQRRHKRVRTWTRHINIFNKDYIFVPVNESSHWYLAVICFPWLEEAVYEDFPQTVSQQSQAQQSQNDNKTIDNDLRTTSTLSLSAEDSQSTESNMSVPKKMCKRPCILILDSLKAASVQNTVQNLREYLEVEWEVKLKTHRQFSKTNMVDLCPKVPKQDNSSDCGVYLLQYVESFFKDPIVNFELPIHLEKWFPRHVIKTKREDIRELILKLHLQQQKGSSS
# [7] = molecular target: T3, Oxysterols receptor LXR-beta (Homo sapiens, UniProt P55055); type: functional, cell-based
# T3 sequence (P55055 whole entry): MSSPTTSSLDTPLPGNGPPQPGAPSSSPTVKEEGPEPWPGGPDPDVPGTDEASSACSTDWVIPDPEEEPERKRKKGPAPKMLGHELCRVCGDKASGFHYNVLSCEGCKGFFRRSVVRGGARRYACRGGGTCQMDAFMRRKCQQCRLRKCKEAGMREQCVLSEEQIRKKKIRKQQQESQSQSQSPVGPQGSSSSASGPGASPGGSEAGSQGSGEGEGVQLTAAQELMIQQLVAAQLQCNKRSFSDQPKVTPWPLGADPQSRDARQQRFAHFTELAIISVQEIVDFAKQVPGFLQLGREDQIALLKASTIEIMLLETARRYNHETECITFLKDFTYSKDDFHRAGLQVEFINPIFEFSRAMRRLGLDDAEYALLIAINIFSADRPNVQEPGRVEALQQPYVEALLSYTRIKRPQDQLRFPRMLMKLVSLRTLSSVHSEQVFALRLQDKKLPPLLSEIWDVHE
# Caspase-3 = molecular target: T4, Caspase-3 (Homo sapiens, UniProt P42574); type: functional;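 note: Dose-response selectivity test against caspase-3 for candidate inhibitors of sentrin-specific proteases (SENPs)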
# T4 sequence (P42574 whole entry): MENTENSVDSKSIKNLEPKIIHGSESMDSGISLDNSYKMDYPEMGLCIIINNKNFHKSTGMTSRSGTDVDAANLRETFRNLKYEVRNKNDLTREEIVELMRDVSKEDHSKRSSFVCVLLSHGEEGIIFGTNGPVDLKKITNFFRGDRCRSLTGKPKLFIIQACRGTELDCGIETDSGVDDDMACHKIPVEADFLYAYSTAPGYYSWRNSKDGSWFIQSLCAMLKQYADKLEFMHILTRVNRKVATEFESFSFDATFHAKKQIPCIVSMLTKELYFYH
# [8] = molecular target: T5, Sentrin-specific protease 6 (Homo sapiens, UniProt Q9GZR1); type: functional;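 note: Luminescence-based dose-response confirmatory assay of SENP6 inhibition, following up an ultra-high-throughput screen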
# T5 sequence (Q9GZR1 whole entry): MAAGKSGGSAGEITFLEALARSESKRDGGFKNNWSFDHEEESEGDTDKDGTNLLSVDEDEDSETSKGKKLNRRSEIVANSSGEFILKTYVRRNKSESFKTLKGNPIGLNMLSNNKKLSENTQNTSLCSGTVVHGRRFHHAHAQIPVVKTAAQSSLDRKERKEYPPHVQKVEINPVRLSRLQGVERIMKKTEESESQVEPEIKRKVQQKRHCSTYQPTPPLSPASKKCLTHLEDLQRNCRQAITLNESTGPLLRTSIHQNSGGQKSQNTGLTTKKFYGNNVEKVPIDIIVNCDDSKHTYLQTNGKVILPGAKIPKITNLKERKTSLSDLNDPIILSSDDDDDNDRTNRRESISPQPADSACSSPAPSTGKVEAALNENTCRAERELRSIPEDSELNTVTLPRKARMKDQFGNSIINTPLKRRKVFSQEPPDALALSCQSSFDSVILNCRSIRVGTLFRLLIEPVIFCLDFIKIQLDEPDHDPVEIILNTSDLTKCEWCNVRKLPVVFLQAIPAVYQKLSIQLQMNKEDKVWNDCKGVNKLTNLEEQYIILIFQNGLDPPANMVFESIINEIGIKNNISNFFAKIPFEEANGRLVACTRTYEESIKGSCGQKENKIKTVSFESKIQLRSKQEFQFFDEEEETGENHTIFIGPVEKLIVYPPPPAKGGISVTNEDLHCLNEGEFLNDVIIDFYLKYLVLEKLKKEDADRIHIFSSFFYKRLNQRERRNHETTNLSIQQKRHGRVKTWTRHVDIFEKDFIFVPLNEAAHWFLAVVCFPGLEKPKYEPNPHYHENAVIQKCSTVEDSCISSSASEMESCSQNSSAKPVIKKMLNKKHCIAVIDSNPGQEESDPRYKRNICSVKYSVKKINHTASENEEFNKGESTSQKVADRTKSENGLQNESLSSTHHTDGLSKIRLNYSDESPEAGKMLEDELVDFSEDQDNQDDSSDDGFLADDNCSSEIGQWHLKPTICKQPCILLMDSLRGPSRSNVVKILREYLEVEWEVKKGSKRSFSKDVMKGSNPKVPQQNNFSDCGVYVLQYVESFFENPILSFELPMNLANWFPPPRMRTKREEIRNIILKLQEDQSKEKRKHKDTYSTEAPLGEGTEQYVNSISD
# Paired box protein Pax-8 = Paired box protein Pax-8 (Homo sapiens, UniProt Q06710); test: PAX8 transcriptional activity inhibition in RMG-I – RMG-I cells, luciferase, cherry-pick, dose response (AID 687027); type: functional, cell-based;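 note: luciferase reporter driven by Pax8 target thyroperoxidase promoter measured by SteadyGlo luminescence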
# Sequence of Paired box protein Pax-8 (Q06710 whole entry): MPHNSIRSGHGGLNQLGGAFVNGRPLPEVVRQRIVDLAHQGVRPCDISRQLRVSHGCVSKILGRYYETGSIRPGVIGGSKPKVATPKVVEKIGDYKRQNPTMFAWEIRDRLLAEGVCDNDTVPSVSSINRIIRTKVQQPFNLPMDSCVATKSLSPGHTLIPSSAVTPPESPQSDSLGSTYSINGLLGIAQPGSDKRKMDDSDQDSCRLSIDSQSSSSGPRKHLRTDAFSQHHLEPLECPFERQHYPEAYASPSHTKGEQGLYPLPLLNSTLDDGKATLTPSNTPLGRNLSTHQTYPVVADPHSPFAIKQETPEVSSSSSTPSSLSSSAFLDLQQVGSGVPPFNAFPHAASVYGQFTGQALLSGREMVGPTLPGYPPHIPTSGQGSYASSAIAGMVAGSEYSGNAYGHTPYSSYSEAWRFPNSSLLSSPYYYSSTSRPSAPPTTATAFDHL
# [9] = OV-90 cell viability loss – plate reader, dry powder, SA8, PAX8 inhibitor project, dose response (AID 743149); type: functional, cell-based
# INS1 = test: INS-1E survival protection against cytokine death – cell-based, luminescence, retest, dose response (AID 449756); type: functional; conditions: Rattus norvegicus;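 note: cell death triggered by IL-1 beta plus TNF-alpha plus IFN-gamma mixture; protective hits raise ATP signal compared with cytokine alone wells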
# [10] = COV362 cell viability loss – plate reader, dry powder, SA12, cytotoxicity control for PAX8 inhibitor project, dose response (AID 743144); type: functional, cell-based
# [11] = general cell-killing toxicity readout – plate reader, dry powder samples, cytotoxicity control for PAX8 inhibitor project, dose response (AID 743021); type: functional, cell-based
# [12] = PAX8-dependent cell viability loss – plate reader, dry powder, dose response (AID 743049); type: functional, cell-based
# [13] = toxicity toward immortalized ovarian surface epithelium – cell-based, plate reader, dry powder samples, cytotoxicity control for PAX8 inhibitor project, dose response (AID 743045); type: functional
# [14] = inhibitors acting on PAX2 in cells – cell-based, plate reader, dry powder samples, selectivity assay for PAX8 inhibitor project, dose response (AID 743048); type: functional;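 note: HEK293 cells carrying a WT1 promoter luciferase reporter driven by expressed Pax2; potency is for inhibition of Pax2 driven reporter signal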
# [15] = PAX5 cellular inhibition readout – cell-based, plate reader, dry powder samples, selectivity assay for PAX8 inhibitor project, dose response (AID 743047); type: functional;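 note: HEK293 cells carrying a Pax5 driven CD19 promoter luciferase reporter; potency of inhibitors that lower reporter luminescence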
# [16] = COV434 cell viability loss – plate reader, dry powder, SA7, cytotoxicity control for PAX8 inhibitor project, dose response (AID 743145); type: functional, cell-based
# [17] = OVCAR-3 cell viability loss – plate reader, dry powder samples, PAX8 inhibitor project, dose response (AID 743044); type: functional, cell-based
# [18] = OVCAR4 cell viability loss – plate reader, dry powder, SA11, cytotoxicity control for PAX8 inhibitor project, dose response (AID 743150); type: functional, cell-based; conditions: OVCAR-4
# [19] = A2780 cell killing – plate reader, dry powder samples, cytotoxicity control, dose response (AID 743046); type: functional, cell-based
# cells [20] = test: cells; remark: listed apart in the source
# [21] = reduced cellular PGC1a acetyl-lysine signal – cell-based, cherry-picked samples, dose response (AID 720514); type: functional;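 note: potency may reflect raised or lowered acetylation signal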
# [22] = viability loss in HepG2 hepatoma cells – cell-based, ATP luminescence, cherry-pick, activator set 2, cytotoxicity control, dose response (AID 1053143); type: functional
# [23] = molecular target: T3, Oxysterols receptor LXR-beta; type: functional, cell-based; remark: listed apart in the source
structure (smiles),measurement,setting,value
CCC(C)NC(=O)Cc1ccc(-c2ccccc2)cc1 (stereo unspecified),AC50,[1],141 µM (active)
same,EC50,[2],> 60 µM (not active)
same,EC50,[3],0.794 µM (active)
Cc1cc(C)nc(Nc2nc(-c3ccccc3)cs2)n1,EC50,cells [4],> 67.5 µM (inactive)
same,IC50,[5],3.29 µM (active)
same,IC50,[6],1.89 µM (active)
same,EC50,[7],> 67.5 µM (inactive)
same,IC50,Caspase-3,> 100 µM (inactive)
same,IC50,[8],2.1 µM (active)
O=C(Nc1cccc(Cl)c1)Nc1nnc(CSCCOc2ccc(Cl)cc2)s1,AC50,Paired box protein Pax-8,5.94 µM (active)
same,AC50,[9],26.1 µM (active)
same,AC50,INS1,3.05 µM (active)
same,AC50,[10],10.7 µM (active)
same,AC50,[11],16 µM (active)
same,AC50,[12],5.65 µM (active)
same,AC50,[13],14.6 µM (active)
same,AC50,[14],8.06 µM (active)
same,AC50,[15],4.51 µM (active)
same,AC50,[16],12.8 µM (active)
same,AC50,[17],15 µM (active)
same,AC50,[18],22.2 µM (active)
same,AC50,[19],6.08 µM (active)
CC(C)N1CCc2c(sc(NC(=O)Cc3ccccc3)c2C#N)C1,AC50,cells [20],10.8 µM (active)
CCOc1ccnc(OCC)c1Br,AC50,[21],32.8 µM (active)
Cc1nc2[nH]c(-c3cccs3)nc2cc1Br,AC50,[22],26 µM (active)
same,EC50,[23],> 67.5 µM (inactive)

# — ChEMBL document CHEMBL1201862, “PubChem BioAssay data set” (2004)
